Data: patent US9593305B2, “Differentiation of pluripotent stem cells” (Janssen Biotech, Inc., priority 2008, dated 2017)

System: H1 human embryonic stem cells
Test: Analogue screening in combination with only GDF-8, SOX17 (Example 21, Tables 18 and 19)
Format: cell-based
Set-up: Sox17 Expression: % of positive control / Cell Number: % of positive control: tested at 2.5 µM
Settings: for Cell Number: Average Total Cell Number / Sox17 Expression: Average Total Intensity / Cell Number: % of positive control / Sox17 Expression: % of positive control: compound in combination with GDF8; for Cell Number: Average Total Cell Number / Sox17 Expression: Average Total Intensity: four assay plates; for Cell Number: % of positive control / Sox17 Expression: % of positive control: relative to Activin A/Wnt3a of the same plate; for Sox17 Expression, % of positive control: 2.5 μM compound with 200 ng/ml GDF-8, four days, Table 19 hits
Procedure, shortened: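 H1 human ES cells treated four days with 200 ng/ml GDF-8 plus 2.5 μM compound (day 1, 0.5% FCS), GDF-8 alone in 2% FCS on day 3; triplicates. Fixed cells immunostained for SOX17 with Hoechst counterstain, imaged at 15 fields/well; total SOX17 intensity normalized to activin A/Wnt3a positive control.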

| Compound | Cell Number: Average Total Cell Number | Sox17 Expression: Average Total Intensity | Cell Number: % of positive control | Sox17 Expression: % of positive control | Sox17 Expression, % of positive control |
| --- | --- | --- | --- | --- | --- |
| O=C1CCN2CCN(CC2)Cc2cccc(c2)Nc2ncnc(n2)-c2ccnc(c2)NCCCN1 [Compound 13, 1,8,10,12,17,19,23,27,33-Nonaazapentacyclo[25.2.2.1˜3,7˜0.1˜9.13˜1˜14.18˜]tetratriaconta-3(34), 4,6,9(33), 10,12,14(32), 15,17-nonaen-24-one] | 3123 | 2.44E+07 | 20.8% | 7.1% | – |
| CCN1CC(=O)NCCCc2cc(ccn2)-c2ncnc(n2)Nc2cc(Cl)cc(c2)C1 [Compound 14, 10-Chloro-14-ethyl-3,5,7,14,17,22,27-heptaazatetracyclo[19.3.1.1˜2,6˜1˜8,12˜]heptacosa-1(25), 2(27), 3,5,8(26), 9,11,21,23-nonaen-16-one] | 274 | 1.56E+05 | 2.0% | 0.1% | – |
| CCN1CC(=O)NCCCc2cccc(c2)-c2ncnc(n2)Nc2cccc(c2)C1 [Compound 15, 14-Ethyl-3,5,7,14,17,27-hexaazatetracyclo[19.3.1.1˜2,6˜1-8.12˜]heptacosa-1(25), 2(27), 3,5,8(26), 9,11,21,23-nonaen-16-one] | 4383 | 3.57E+07 | 28.7% | 10.6% | – |
| O=C1NCCCc2cncc(c2)-c2ncnc(n2)Nc2cccc(c2)CN2CCCC1C2 (stereo not shown) [Compound 17, 3,5,7,14,20,26,31-Heptaazapentacyclo[22.3.1.1-2,6˜1˜8,12˜1˜14,18˜]hentriaconta-1(28), 2(31), 3,5,8(30), 9,11,24,26-nonaen-19-one] | – | – | – | – | 23.6 % of positive control |
| O=C1NCCCc2cncc(c2)-c2ncnc(n2)Nc2cccc(c2)CN2CCC[C@@H]12 [Compound 18, (18S)-3,5,7,14,20,26,30-Heptaazapentacyclo[22.3.1.1˜2,6˜1˜8,12˜0.0˜14,18˜]triaconta-1(28), 2(30), 3,5,8(29), 9,11,24,26-nonaen-19-one] | 1921 | 2.94E+07 | 13.8% | 9.5% | – |
| CN1CCC(=O)NCCCc2cncc(c2)-c2ncnc(n2)Nc2cccc(c2)C1 [Compound 19, 14-Methyl-3,5,7,14,18,24,28-heptaazatetracyclo[20.3.1.1˜2,6˜0.1˜8,12˜]octacosa-1(26), 2(28), 3,5,8(27), 9,11,22,24-nonaen-17-one] | 12569 | 2.40E+08 | 83.8% | 69.5% | 69.5 % of positive control |
| CN1CCCC(=O)NCCCc2cncc(c2)-c2ncnc(n2)Nc2cccc(c2)C1 [Compound 20, 14-Methyl-3,5,7,14,19,25,29-heptaazatetracyclo[21.3.1.1˜2,6˜0.1˜8,12˜]nonacosa-1(27), 2(29), 3,5,8(28), 9,11,23,25-nonaen-18-one] | 2793 | 6.77E+06 | 17.6% | 1.9% | – |
| CN1CCC(=O)NCCCNc2cccc(c2)-c2ncnc(n2)Nc2cccc(c2)C1 [Compound 21, 14-Methyl-3,5,7,14,18,22,29-heptaazatetracyclo[21.3.1.1˜2,6˜0.1˜8,12˜]nonacosa-1(27), 2(29), 3,5,8(28), 9,11,23,25-nonaen-17-one] | 371 | 2.36E+06 | 2.3% | 0.7% | – |
| O=C1NCCCc2cncc(c2)-c2ncnc(n2)Nc2cccc(c2)CN2CCC1CC2 [Compound 22, 1,8,10,12,16,22,30-Heptaazapentacyclo[22.2.2.1-3,7˜0.1˜9,13˜1-14,18˜]hentriaconta-3(31), 4,6,9(30), 10,12,14(29), 15,17-nonaen-23-one] | 6727 | 1.06E+08 | 42.4% | 29.8% | 27.4 % of positive control |
| O=C1CCN2CCN(CC2)Cc2cccc(c2)Nc2ncnc(n2)-c2cncc(c2)CCCN1 [Compound 23, 1,8,10,12,16,22,26,32-Octaazapentacyclo[24.2.2.1-3,7˜0.1˜9,13˜0.1˜14,18˜]tritriaconta-3(33), 4,6,9(32), 10,12,14(31), 15,17-nonaen-23-one] | 8758 | 1.16E+08 | 58.4% | 33.7% | 29.8 % of positive control |
| CCN1CC(=O)NCCCc2cc(ccc2F)-c2ncnc(n2)Nc2cc(Cl)cc(c2)C1 [Compound 25, 10-Chloro-14-ethyl-22-fluoro-3,5,7,14,17,27-hexaazatetracyclo[19.3.1.1˜2,6˜0.1˜8,12˜]heptacosa-1(25), 2(27), 3,5,8(26), 9,11,21,23-nonaen-16-one] | 3879 | 1.76E+07 | 24.4% | 5.0% | – |
| O=C1CCN2CCN(CC2)Cc2cc(Cl)cc(c2)Nc2ncnc(n2)-c2cncc(c2)CCCN1 [Compound 34, 5-Chloro-1,8,10,12,16,22,26,32-octaazapentacyclo[24.2.2.1˜3.7˜0.1˜9,13˜0.1˜14.18˜]tritriaconta-3(33), 4,6,9(32), 10,12,14(31), 15,17-nonaen-23-one] | – | – | – | – | 68.0 % of positive control |
| CCN1CC(=O)NCCCc2cncc(c2)-c2ncnc(n2)Nc2cc(Cl)cc(c2)C1 [Compound 35, 10-Chloro-14-ethyl-3,5,7,14,17,23,27-heptaazatetracyclo[19.3.1.1˜2,6˜0.1˜8,12]Theptacosa-1(25), 2(27), 3,5,8(26), 9,11,21,23-nonaen-16-one] | 7746 | 1.35E+08 | 48.8% | 38.0% | 33.7 % of positive control |
| O=C1NCCCc2cncc(c2)-c2ncnc(n2)Nc2cc(Cl)cc(c2)CN2CCCC1C2 (stereo not shown) [Compound 37, 10-Chloro-3,5,7,14,20,26,31-heptaazapentacyclo[22.3.1.1˜2,6˜0.1˜8,12˜0.1˜14,18˜]hentriaconta-1(28), 2(31), 3,5,8(30), 9,11,24,26-nonaen-19-one] | 4187 | 3.11E+07 | 26.4% | 8.8% | – |
| C=CCN1CC(=O)NCCCc2cncc(c2)-c2ncnc(n2)Nc2cccc(c2)C1 [Compound 40, 14-Prop-2-en-1-yl-3,5,7,14,17,23,27-heptaazatetracyclo[19.3.1.1˜2.6˜0.1˜8,12˜]heptacosa-1(25), 2(27), 3,5,8(26), 9,11,21,23-nonaen-16-one] | – | – | – | – | 52.2 % of positive control |
